# Source: PubChem BioAssay (NCI)
#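 Results reflect a 48-hour exposure of cells in 96-well plates to compound at five concentrations. At the TGI there is no net growth.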
# Test system: KM20L2 colon
# Assay: NCI-60 cell line screen, 48 h
row,SMILES,TGI
1,COc1c(C)c2c(c(C)c1Cl)Oc1c(C=O)c(O)c(Cl)c(C)c1C(=O)O2,82.9 µM
2,NC(CCC(=O)NC(CSC(=O)N(O)c1ccc(Br)cc1)C(=O)NCC(=O)O)C(=O)O (stereo not drawn),> 100 µM
3,CCOC(=O)CCc1c(C)c2c(OC(C)=O)cc(OC(C)=O)cc2oc1=O,> 100 µM

# Test system: M19-MEL melanoma
# Assay: NCI-60 cell line screen, 48 h
row,SMILES,TGI
1,N#C/C(=C\c1ccc(O)c(O)c1)C(N)=O,> 100 µM
2,COc1cc2c(cc1OC)C(O)[C@H](Br)C(C)(C)O2 (stereo partly drawn),> 100 µM
3,Cc1cn(C2CC(N(O)Cc3ccccc3)C(CO)O2)c(=O)[nH]c1=O (stereo not drawn),> 100 µM
4,O=C(CCC/C(CC(=O)c1ccc(Br)cc1)=N\O)Nc1ccccc1,> 100 µM
5,COc1c(C)c2c(c(C)c1Cl)Oc1c(C=O)c(O)c(Cl)c(C)c1C(=O)O2,> 100 µM
6,NC(CCC(=O)NC(CSC(=O)N(O)c1ccc(Br)cc1)C(=O)NCC(=O)O)C(=O)O (stereo not drawn),> 100 µM
7,CCOC(=O)CCc1c(C)c2c(OC(C)=O)cc(OC(C)=O)cc2oc1=O,> 100 µM

# Test system: SK-MEL-2 melanoma
# Assay: NCI-60 cell line screen, 48 h
row,SMILES,TGI
1,N#C/C(=C\c1ccc(O)c(O)c1)C(N)=O,> 100 µM
2,COc1cc2c(cc1OC)C(O)[C@H](Br)C(C)(C)O2 (stereo partly drawn),> 100 µM
3,O=C(CCC/C(CC(=O)c1ccc(Br)cc1)=N\O)Nc1ccccc1,> 100 µM
4,NC(CCC(=O)NC(CSC(=O)N(O)c1ccc(Br)cc1)C(=O)NCC(=O)O)C(=O)O (stereo not drawn),> 100 µM
5,CCOC(=O)CCc1c(C)c2c(OC(C)=O)cc(OC(C)=O)cc2oc1=O,82.2 µM

# Test system: IGROV1 ovarian
# Assay: NCI-60 cell line screen, 48 h
row,SMILES,TGI
1,N#C/C(=C\c1ccc(O)c(O)c1)C(N)=O,> 100 µM
2,COc1cc2c(cc1OC)C(O)[C@H](Br)C(C)(C)O2 (stereo partly drawn),> 100 µM
3,Cc1cn(C2CC(N(O)Cc3ccccc3)C(CO)O2)c(=O)[nH]c1=O (stereo not drawn),> 100 µM
4,O=C(CCC/C(CC(=O)c1ccc(Br)cc1)=N\O)Nc1ccccc1,> 100 µM
5,COc1c(C)c2c(c(C)c1Cl)Oc1c(C=O)c(O)c(Cl)c(C)c1C(=O)O2,83.8 µM
6,NC(CCC(=O)NC(CSC(=O)N(O)c1ccc(Br)cc1)C(=O)NCC(=O)O)C(=O)O (stereo not drawn),> 100 µM

# Test system: XF 498 CNS
# Assay: NCI-60 cell line screen, 48 h
row,SMILES,TGI
1,COc1cc2c(cc1OC)C(O)[C@H](Br)C(C)(C)O2 (stereo partly drawn),> 100 µM
2,Cc1cn(C2CC(N(O)Cc3ccccc3)C(CO)O2)c(=O)[nH]c1=O (stereo not drawn),> 100 µM
3,O=C(CCC/C(CC(=O)c1ccc(Br)cc1)=N\O)Nc1ccccc1,> 100 µM
4,COc1c(C)c2c(c(C)c1Cl)Oc1c(C=O)c(O)c(Cl)c(C)c1C(=O)O2,22.7 µM

# Test system: NCI-H226 lung
# Assay: NCI-60 cell line screen, 48 h
row,SMILES,TGI
1,N#C/C(=C\c1ccc(O)c(O)c1)C(N)=O,> 100 µM
2,COc1cc2c(cc1OC)C(O)[C@H](Br)C(C)(C)O2 (stereo partly drawn),> 100 µM
3,Cc1cn(C2CC(N(O)Cc3ccccc3)C(CO)O2)c(=O)[nH]c1=O (stereo not drawn),> 100 µM
4,O=C(CCC/C(CC(=O)c1ccc(Br)cc1)=N\O)Nc1ccccc1,> 100 µM
5,COc1c(C)c2c(c(C)c1Cl)Oc1c(C=O)c(O)c(Cl)c(C)c1C(=O)O2,94.6 µM
6,NC(CCC(=O)NC(CSC(=O)N(O)c1ccc(Br)cc1)C(=O)NCC(=O)O)C(=O)O (stereo not drawn),> 100 µM

# Test system: A549 NSCLC
# Assay: NCI-60 cell line screen, 48 h
row,SMILES,TGI
1,N#C/C(=C\c1ccc(O)c(O)c1)C(N)=O,> 100 µM
2,COc1cc2c(cc1OC)C(O)[C@H](Br)C(C)(C)O2 (stereo partly drawn),> 100 µM
3,Cc1cn(C2CC(N(O)Cc3ccccc3)C(CO)O2)c(=O)[nH]c1=O (stereo not drawn),> 100 µM
4,O=C(CCC/C(CC(=O)c1ccc(Br)cc1)=N\O)Nc1ccccc1,> 100 µM
5,COc1c(C)c2c(c(C)c1Cl)Oc1c(C=O)c(O)c(Cl)c(C)c1C(=O)O2,> 100 µM
6,NC(CCC(=O)NC(CSC(=O)N(O)c1ccc(Br)cc1)C(=O)NCC(=O)O)C(=O)O (stereo not drawn),> 100 µM
7,CCOC(=O)CCc1c(C)c2c(OC(C)=O)cc(OC(C)=O)cc2oc1=O,> 100 µM

# Test system: SW-620 colon
# Assay: NCI-60 cell line screen, 48 h
row,SMILES,TGI
1,N#C/C(=C\c1ccc(O)c(O)c1)C(N)=O,> 100 µM
2,COc1cc2c(cc1OC)C(O)[C@H](Br)C(C)(C)O2 (stereo partly drawn),> 100 µM
3,Cc1cn(C2CC(N(O)Cc3ccccc3)C(CO)O2)c(=O)[nH]c1=O (stereo not drawn),> 100 µM
4,O=C(CCC/C(CC(=O)c1ccc(Br)cc1)=N\O)Nc1ccccc1,> 100 µM
5,COc1c(C)c2c(c(C)c1Cl)Oc1c(C=O)c(O)c(Cl)c(C)c1C(=O)O2,> 100 µM
6,NC(CCC(=O)NC(CSC(=O)N(O)c1ccc(Br)cc1)C(=O)NCC(=O)O)C(=O)O (stereo not drawn),> 100 µM
7,CCOC(=O)CCc1c(C)c2c(OC(C)=O)cc(OC(C)=O)cc2oc1=O,> 100 µM

# Test system: NCI-H460 lung
# Assay: NCI-60 cell line screen, 48 h
row,SMILES,TGI
1,N#C/C(=C\c1ccc(O)c(O)c1)C(N)=O,> 100 µM
2,COc1cc2c(cc1OC)C(O)[C@H](Br)C(C)(C)O2 (stereo partly drawn),> 100 µM
3,Cc1cn(C2CC(N(O)Cc3ccccc3)C(CO)O2)c(=O)[nH]c1=O (stereo not drawn),> 100 µM
4,O=C(CCC/C(CC(=O)c1ccc(Br)cc1)=N\O)Nc1ccccc1,> 100 µM
5,COc1c(C)c2c(c(C)c1Cl)Oc1c(C=O)c(O)c(Cl)c(C)c1C(=O)O2,> 100 µM
6,NC(CCC(=O)NC(CSC(=O)N(O)c1ccc(Br)cc1)C(=O)NCC(=O)O)C(=O)O (stereo not drawn),> 100 µM
7,CCOC(=O)CCc1c(C)c2c(OC(C)=O)cc(OC(C)=O)cc2oc1=O,91.1 µM

# Test system: UO-31 renal
# Assay: NCI-60 cell line screen, 48 h
row,SMILES,TGI
1,N#C/C(=C\c1ccc(O)c(O)c1)C(N)=O,> 100 µM
2,COc1cc2c(cc1OC)C(O)[C@H](Br)C(C)(C)O2 (stereo partly drawn),> 100 µM
3,Cc1cn(C2CC(N(O)Cc3ccccc3)C(CO)O2)c(=O)[nH]c1=O (stereo not drawn),> 100 µM
4,O=C(CCC/C(CC(=O)c1ccc(Br)cc1)=N\O)Nc1ccccc1,> 100 µM
5,NC(CCC(=O)NC(CSC(=O)N(O)c1ccc(Br)cc1)C(=O)NCC(=O)O)C(=O)O (stereo not drawn),> 100 µM
6,CCOC(=O)CCc1c(C)c2c(OC(C)=O)cc(OC(C)=O)cc2oc1=O,> 100 µM

# Test system: DU-145 prostate
# Assay: NCI-60 cell line screen, 48 h
row,SMILES,TGI
1,NC(CCC(=O)NC(CSC(=O)N(O)c1ccc(Br)cc1)C(=O)NCC(=O)O)C(=O)O (stereo not drawn),> 50 µM

# Test system: U251 CNS
# Assay: NCI-60 cell line screen, 48 h
row,SMILES,TGI
1,N#C/C(=C\c1ccc(O)c(O)c1)C(N)=O,> 100 µM
2,COc1cc2c(cc1OC)C(O)[C@H](Br)C(C)(C)O2 (stereo partly drawn),> 100 µM
3,Cc1cn(C2CC(N(O)Cc3ccccc3)C(CO)O2)c(=O)[nH]c1=O (stereo not drawn),> 100 µM
4,O=C(CCC/C(CC(=O)c1ccc(Br)cc1)=N\O)Nc1ccccc1,> 100 µM
5,COc1c(C)c2c(c(C)c1Cl)Oc1c(C=O)c(O)c(Cl)c(C)c1C(=O)O2,44.9 µM
6,NC(CCC(=O)NC(CSC(=O)N(O)c1ccc(Br)cc1)C(=O)NCC(=O)O)C(=O)O (stereo not drawn),> 100 µM
7,CCOC(=O)CCc1c(C)c2c(OC(C)=O)cc(OC(C)=O)cc2oc1=O,> 100 µM

# Test system: COLO 205 colon
# Assay: NCI-60 cell line screen, 48 h
row,SMILES,TGI
1,N#C/C(=C\c1ccc(O)c(O)c1)C(N)=O,> 100 µM
2,COc1cc2c(cc1OC)C(O)[C@H](Br)C(C)(C)O2 (stereo partly drawn),> 100 µM
3,Cc1cn(C2CC(N(O)Cc3ccccc3)C(CO)O2)c(=O)[nH]c1=O (stereo not drawn),> 100 µM
4,O=C(CCC/C(CC(=O)c1ccc(Br)cc1)=N\O)Nc1ccccc1,> 100 µM
5,COc1c(C)c2c(c(C)c1Cl)Oc1c(C=O)c(O)c(Cl)c(C)c1C(=O)O2,66.4 µM
6,NC(CCC(=O)NC(CSC(=O)N(O)c1ccc(Br)cc1)C(=O)NCC(=O)O)C(=O)O (stereo not drawn),> 100 µM
7,CCOC(=O)CCc1c(C)c2c(OC(C)=O)cc(OC(C)=O)cc2oc1=O,> 100 µM

# Test system: UACC-62 melanoma
# Assay: NCI-60 cell line screen, 48 h
row,SMILES,TGI
1,N#C/C(=C\c1ccc(O)c(O)c1)C(N)=O,> 100 µM
2,COc1cc2c(cc1OC)C(O)[C@H](Br)C(C)(C)O2 (stereo partly drawn),> 100 µM
3,Cc1cn(C2CC(N(O)Cc3ccccc3)C(CO)O2)c(=O)[nH]c1=O (stereo not drawn),> 100 µM
4,O=C(CCC/C(CC(=O)c1ccc(Br)cc1)=N\O)Nc1ccccc1,> 100 µM
5,COc1c(C)c2c(c(C)c1Cl)Oc1c(C=O)c(O)c(Cl)c(C)c1C(=O)O2,63 µM
6,NC(CCC(=O)NC(CSC(=O)N(O)c1ccc(Br)cc1)C(=O)NCC(=O)O)C(=O)O (stereo not drawn),> 100 µM

# Test system: 786-0 renal
# Assay: NCI-60 cell line screen, 48 h
row,SMILES,TGI
1,N#C/C(=C\c1ccc(O)c(O)c1)C(N)=O,> 100 µM
2,COc1cc2c(cc1OC)C(O)[C@H](Br)C(C)(C)O2 (stereo partly drawn),> 100 µM
3,Cc1cn(C2CC(N(O)Cc3ccccc3)C(CO)O2)c(=O)[nH]c1=O (stereo not drawn),> 100 µM
4,O=C(CCC/C(CC(=O)c1ccc(Br)cc1)=N\O)Nc1ccccc1,> 100 µM
5,COc1c(C)c2c(c(C)c1Cl)Oc1c(C=O)c(O)c(Cl)c(C)c1C(=O)O2,> 100 µM
6,NC(CCC(=O)NC(CSC(=O)N(O)c1ccc(Br)cc1)C(=O)NCC(=O)O)C(=O)O (stereo not drawn),> 100 µM
7,CCOC(=O)CCc1c(C)c2c(OC(C)=O)cc(OC(C)=O)cc2oc1=O,> 100 µM

# Test system: HOP-62 NSCLC
# Assay: NCI-60 cell line screen, 48 h
row,SMILES,TGI
1,N#C/C(=C\c1ccc(O)c(O)c1)C(N)=O,> 100 µM
2,COc1cc2c(cc1OC)C(O)[C@H](Br)C(C)(C)O2 (stereo partly drawn),> 100 µM
3,Cc1cn(C2CC(N(O)Cc3ccccc3)C(CO)O2)c(=O)[nH]c1=O (stereo not drawn),> 100 µM
4,O=C(CCC/C(CC(=O)c1ccc(Br)cc1)=N\O)Nc1ccccc1,> 100 µM
5,COc1c(C)c2c(c(C)c1Cl)Oc1c(C=O)c(O)c(Cl)c(C)c1C(=O)O2,93.7 µM
6,NC(CCC(=O)NC(CSC(=O)N(O)c1ccc(Br)cc1)C(=O)NCC(=O)O)C(=O)O (stereo not drawn),> 100 µM
7,CCOC(=O)CCc1c(C)c2c(OC(C)=O)cc(OC(C)=O)cc2oc1=O,> 100 µM
